# Measured values published in ChEMBL document CHEMBL1275576, “In vitro activity of tomopenem (CS-023/RO4908463) against anaerobic bacteria” (Antimicrob Agents Chemother, 2009).
# Key:
# Bacteroides ovatus = experiment: Antimicrobial activity against Bacteroides ovatus ATCC 8483 by agar dilution method in presence of 5% laked sheep blood; assay type: functional
# [1] = test system: Fusobacterium necrophorum; experiment: Antimicrobial activity against Fusobacterium necrophorum by agar dilution method in presence of 5% laked sheep blood; assay type: functional
# [2] = test system: Campylobacter ureolyticus; experiment: Antimicrobial activity against Bacteroides ureolyticus NCTC 10941 by agar dilution method in presence of 5% laked sheep blood; assay type: functional
# [3] = Antimicrobial activity against Parabacteroides distasonis ATCC 8503 by agar dilution method in presence of 5% laked sheep blood; assay type: functional
# Fusobacterium sp. = experiment: Antimicrobial activity against Fusobacterium sp. by agar dilution method in presence of 5% laked sheep blood; assay type: functional
# Eggerthella lenta = experiment: Antimicrobial activity against Eggerthella lenta by agar dilution method in presence of 5% laked sheep blood; assay type: functional
# Phocaeicola vulgatus = experiment: Antimicrobial activity against Bacteroides vulgatus by agar dilution method in presence of 5% laked sheep blood; assay type: functional
# [4] = test system: Peptostreptococcus anaerobius; experiment: Antimicrobial activity against Peptostreptococcus anaerobius by agar dilution method in presence of 5% laked sheep blood; assay type: functional
# Fusobacterium varium [5] = experiment: Antimicrobial activity against Fusobacterium varium by agar dilution method in presence of 5% laked sheep blood; assay type: functional
# Anaerococcus prevotii = experiment: Antimicrobial activity against Anaerococcus prevotii ATCC 9321 by agar dilution method in presence of 5% laked sheep blood; assay type: functional
# Bacteroides uniformis = experiment: Antimicrobial activity against Bacteroides uniformis by agar dilution method in presence of 5% laked sheep blood; assay type: functional
# Finegoldia magna = experiment: Antimicrobial activity against Finegoldia magna by agar dilution method in presence of 5% laked sheep blood; assay type: functional
# Bacteroides stercoris = experiment: Antimicrobial activity against Bacteroides stercoris by agar dilution method in presence of 5% laked sheep blood; assay type: functional
# Atopobium parvulum = experiment: Antimicrobial activity against Atopobium parvulum VPI 0546 by agar dilution method in presence of 5% laked sheep blood; assay type: functional; details: Lancefieldella parvula
# Prevotella sp. = experiment: Antimicrobial activity against Prevotella sp. by agar dilution method in presence of 5% laked sheep blood; assay type: functional
# Fusobacterium nucleatum [6] = experiment: Antimicrobial activity against Fusobacterium nucleatum ATCC 25586 by agar dilution method in presence of 5% laked sheep blood; assay type: functional
# Parvimonas micra = experiment: Antimicrobial activity against Parvimonas micra by agar dilution method in presence of 5% laked sheep blood; assay type: functional
# Bacteroides fragilis [7] = experiment: Antimicrobial activity against Bacteroides fragilis GAI 10150 by agar dilution method in presence of 5% laked sheep blood; assay type: functional
# [8] = test system: Peptoniphilus asaccharolyticus; experiment: Antimicrobial activity against Peptoniphilus asaccharolyticus by agar dilution method in presence of 5% laked sheep blood; assay type: functional
# Clostridium perfringens = experiment: Antimicrobial activity against Clostridium perfringens by agar dilution method in presence of 5% laked sheep blood; assay type: functional
# [9] = Antimicrobial activity against Finegoldia magna ATCC 29328 by agar dilution method in presence of 5% laked sheep blood; assay type: functional
# [10] = test system: Lactiplantibacillus plantarum; experiment: Antimicrobial activity against Lactobacillus plantarum JCM 1149 by agar dilution method in presence of 5% laked sheep blood; assay type: functional
# Bacteroides fragilis [11] = experiment: Antimicrobial activity against Bacteroides fragilis by agar dilution method in presence of 5% laked sheep blood; assay type: functional
# [12] = test system: Streptococcus constellatus; experiment: Antimicrobial activity against Streptococcus constellatus ATCC 27923 by agar dilution method in presence of 5% laked sheep blood; assay type: functional
# Prevotella bivia = experiment: Antimicrobial activity against Prevotella bivia ATCC 29303 by agar dilution method in presence of 5% laked sheep blood; assay type: functional; details: DSM 20514
# Lactobacillus salivarius = experiment: Antimicrobial activity against Lactobacillus salivarius subsp. salivarius JCM 1231 by agar dilution method in presence of 5% laked sheep blood; assay type: functional; details: Ligilactobacillus salivarius
# Lacticaseibacillus casei = experiment: Antimicrobial activity against Lactobacillus casei subsp. casei JCM 1134 by agar dilution method in presence of 5% laked sheep blood; assay type: functional
# [13] = test system: Bacteroides eggerthii DSM 20697; experiment: Antimicrobial activity against Bacteroides eggerthii ATCC 27754 by agar dilution method in presence of 5% laked sheep blood; assay type: functional
# [14] = test system: Bacteroides thetaiotaomicron; experiment: Antimicrobial activity against Bacteroides thetaiotaomicron by agar dilution method in presence of 5% laked sheep blood; assay type: functional
# [15] = test system: Peptostreptococcus anaerobius; experiment: Antimicrobial activity against Peptostreptococcus anaerobius ATCC 27337 by agar dilution method in presence of 5% laked sheep blood; assay type: functional
# Fusobacterium varium [16] = experiment: Antimicrobial activity against Fusobacterium varium ATCC 8501 by agar dilution method in presence of 5% laked sheep blood; assay type: functional
# [17] = Antimicrobial activity against Desulfovibrio piger DSM 749 by agar dilution method in presence of 5% laked sheep blood; assay type: functional, Desulfovibrio piger ATCC 29098
# [18] = test system: Bifidobacterium pseudolongum; experiment: Antimicrobial activity against Bifidobacterium pseudolongum ATCC 25526 by agar dilution method in presence of 5% laked sheep blood; assay type: functional
# Capnocytophaga ochracea = experiment: Antimicrobial activity against Capnocytophaga ochracea GAI 5586 by agar dilution method in presence of 5% laked sheep blood; assay type: functional
# [19] = test system: Limosilactobacillus fermentum; experiment: Antimicrobial activity against Lactobacillus fermentum JCM 1173 by agar dilution method in presence of 5% laked sheep blood; assay type: functional
# Bacteroides fragilis [20] = experiment: Antimicrobial activity against carbapenemase-producing Bacteroides fragilis GAI 30079 by agar dilution method in presence of 5% laked sheep blood; assay type: functional
# [21] = test system: Porphyromonas asaccharolytica; experiment: Antimicrobial activity against Porphyromonas asaccharolyticus by agar dilution method in presence of 5% laked sheep blood; assay type: functional
# [22] = test system: Parabacteroides distasonis; experiment: Antimicrobial activity against Parabacteroides distasonis by agar dilution method in presence of 5% laked sheep blood; assay type: functional
# Eubacterium limosum = experiment: Antimicrobial activity against Eubacterium limosum by agar dilution method in presence of 5% laked sheep blood; assay type: functional
# Prevotella denticola = experiment: Antimicrobial activity against Prevotella denticola GAI 5490 by agar dilution method in presence of 5% laked sheep blood; assay type: functional
# Fusobacterium nucleatum [23] = experiment: Antimicrobial activity against Fusobacterium nucleatum by agar dilution method in presence of 5% laked sheep blood; assay type: functional
# [24] = test system: Prevotella melaninogenica; experiment: Antimicrobial activity against Prevotella melaninogenica by agar dilution method in presence of 5% laked sheep blood; assay type: functional
# Fusobacterium mortiferum = experiment: Antimicrobial activity against Fusobacterium mortiferum by agar dilution method in presence of 5% laked sheep blood; assay type: functional
# Clostridioides difficile = experiment: Antimicrobial activity against Clostridium difficile by agar dilution method in presence of 5% laked sheep blood; assay type: functional
smiles,measurement,setting,value
C[C@@H](O)[C@H]1C(=O)N2C(C(=O)O)=C(S[C@@H]3CN[C@H](CNS(N)(=O)=O)C3)[C@H](C)[C@H]12 [DORIPENEM],MIC,Bacteroides ovatus,0.5 µg/mL
same,MIC50,[1],0.03 µg/mL
same,MIC90,[1],0.25 µg/mL
same,MIC,[2],0.06 µg/mL
same,MIC,[3],0.5 µg/mL
same,MIC50,Fusobacterium sp.,0.03 µg/mL
same,MIC90,Fusobacterium sp.,0.25 µg/mL
same,MIC50,Eggerthella lenta,0.25 µg/mL
same,MIC90,Eggerthella lenta,0.25 µg/mL
same,MIC50,Phocaeicola vulgatus,0.5 µg/mL
same,MIC90,Phocaeicola vulgatus,4 µg/mL
same,MIC50,[4],0.25 µg/mL
same,MIC90,[4],2 µg/mL
same,MIC50,Fusobacterium varium [5],0.03 µg/mL
same,MIC90,Fusobacterium varium [5],0.25 µg/mL
same,MIC,Anaerococcus prevotii,0.25 µg/mL
same,MIC50,Bacteroides uniformis,0.5 µg/mL
same,MIC90,Bacteroides uniformis,4 µg/mL
same,MIC50,Finegoldia magna,0.125 µg/mL
same,MIC90,Finegoldia magna,0.25 µg/mL
same,MIC50,Bacteroides stercoris,0.5 µg/mL
same,MIC90,Bacteroides stercoris,4 µg/mL
same,MIC,Atopobium parvulum,1 µg/mL
same,MIC50,Prevotella sp.,0.06 µg/mL
same,MIC90,Prevotella sp.,0.125 µg/mL
same,MIC,Fusobacterium nucleatum [6],4 µg/mL
same,MIC50,Parvimonas micra,0.06 µg/mL
same,MIC90,Parvimonas micra,0.125 µg/mL
same,MIC,Bacteroides fragilis [7],2 µg/mL
same,MIC50,[8],≤ 0.015 µg/mL
same,MIC90,[8],0.125 µg/mL
same,MIC50,Clostridium perfringens,0.03 µg/mL
same,MIC90,Clostridium perfringens,0.06 µg/mL
same,MIC,[9],0.25 µg/mL
same,MIC,[10],0.125 µg/mL
same,MIC50,Bacteroides fragilis [11],0.25 µg/mL
same,MIC90,Bacteroides fragilis [11],0.5 µg/mL
same,MIC,[12],0.5 µg/mL
same,MIC,Prevotella bivia,0.5 µg/mL
same,MIC,Lactobacillus salivarius,0.5 µg/mL
same,MIC,Lacticaseibacillus casei,1 µg/mL
same,MIC,[13],0.25 µg/mL
same,MIC50,[14],0.5 µg/mL
same,MIC90,[14],1 µg/mL
same,MIC,[15],0.5 µg/mL
same,MIC,Fusobacterium varium [16],0.5 µg/mL
same,MIC,[17],0.06 µg/mL
same,MIC,[18],0.5 µg/mL
same,MIC,Capnocytophaga ochracea,0.125 µg/mL
same,MIC,[19],0.06 µg/mL
same,MIC,Bacteroides fragilis [20],> 128 µg/mL
same,MIC50,[21],0.03 µg/mL
same,MIC90,[21],0.06 µg/mL
same,MIC50,[22],0.5 µg/mL
same,MIC90,[22],4 µg/mL
same,MIC50,Eubacterium limosum,0.25 µg/mL
same,MIC90,Eubacterium limosum,0.25 µg/mL
same,MIC,Prevotella denticola,0.06 µg/mL
same,MIC50,Fusobacterium nucleatum [23],0.03 µg/mL
same,MIC90,Fusobacterium nucleatum [23],0.25 µg/mL
same,MIC50,[24],0.06 µg/mL
same,MIC90,[24],0.125 µg/mL
same,MIC50,Fusobacterium mortiferum,0.03 µg/mL
same,MIC90,Fusobacterium mortiferum,0.25 µg/mL
same,MIC50,Clostridioides difficile,2 µg/mL
same,MIC90,Clostridioides difficile,4 µg/mL
CC(=N)N1CC[C@H](SC2=C(C(=O)O)N3C(=O)[C@H]([C@@H](C)O)[C@H]3C2)C1,MIC,Bacteroides ovatus,0.5 µg/mL
same,MIC50,[1],0.125 µg/mL
same,MIC90,[1],2 µg/mL
same,MIC,[2],0.25 µg/mL
same,MIC,[3],1 µg/mL
same,MIC50,Fusobacterium sp.,0.125 µg/mL
same,MIC90,Fusobacterium sp.,2 µg/mL
same,MIC50,Eggerthella lenta,1 µg/mL
same,MIC90,Eggerthella lenta,2 µg/mL
same,MIC50,Phocaeicola vulgatus,1 µg/mL
same,MIC90,Phocaeicola vulgatus,4 µg/mL
same,MIC50,[4],0.125 µg/mL
same,MIC90,[4],1 µg/mL
same,MIC50,Fusobacterium varium [5],0.125 µg/mL
same,MIC90,Fusobacterium varium [5],2 µg/mL
same,MIC,Anaerococcus prevotii,0.125 µg/mL
same,MIC50,Bacteroides uniformis,1 µg/mL
same,MIC90,Bacteroides uniformis,4 µg/mL
same,MIC50,Finegoldia magna,0.25 µg/mL
same,MIC90,Finegoldia magna,0.5 µg/mL
same,MIC50,Bacteroides stercoris,1 µg/mL
same,MIC90,Bacteroides stercoris,4 µg/mL
same,MIC,Atopobium parvulum,0.25 µg/mL
same,MIC50,Prevotella sp.,0.125 µg/mL
same,MIC90,Prevotella sp.,0.25 µg/mL
same,MIC,Fusobacterium nucleatum [6],1 µg/mL
same,MIC50,Parvimonas micra,0.125 µg/mL
same,MIC90,Parvimonas micra,0.125 µg/mL
same,MIC,Bacteroides fragilis [7],8 µg/mL
same,MIC50,[8],0.03 µg/mL
same,MIC90,[8],0.06 µg/mL
same,MIC50,Clostridium perfringens,0.03 µg/mL
same,MIC90,Clostridium perfringens,0.06 µg/mL
same,MIC,[9],0.25 µg/mL
same,MIC,[10],0.03 µg/mL
same,MIC50,Bacteroides fragilis [11],0.25 µg/mL
same,MIC90,Bacteroides fragilis [11],8 µg/mL
same,MIC,[12],0.25 µg/mL
same,MIC,Prevotella bivia,0.5 µg/mL
same,MIC,Lactobacillus salivarius,0.25 µg/mL
same,MIC,Lacticaseibacillus casei,0.5 µg/mL
same,MIC,[13],0.25 µg/mL
same,MIC50,[14],0.5 µg/mL
same,MIC90,[14],2 µg/mL
same,MIC,[15],0.125 µg/mL
same,MIC,Fusobacterium varium [16],4 µg/mL
same,MIC,[17],0.125 µg/mL
same,MIC,[18],0.25 µg/mL
same,MIC,Capnocytophaga ochracea,0.125 µg/mL
same,MIC,[19],0.03 µg/mL
same,MIC,Bacteroides fragilis [20],> 128 µg/mL
same,MIC50,[21],0.06 µg/mL
same,MIC90,[21],0.06 µg/mL
same,MIC50,[22],1 µg/mL
same,MIC90,[22],4 µg/mL
same,MIC50,Eubacterium limosum,1 µg/mL
same,MIC90,Eubacterium limosum,2 µg/mL
same,MIC,Prevotella denticola,0.06 µg/mL
same,MIC50,Fusobacterium nucleatum [23],0.125 µg/mL
same,MIC90,Fusobacterium nucleatum [23],2 µg/mL
same,MIC50,[24],0.125 µg/mL
same,MIC90,[24],0.25 µg/mL
same,MIC50,Fusobacterium mortiferum,0.125 µg/mL
same,MIC90,Fusobacterium mortiferum,2 µg/mL
same,MIC50,Clostridioides difficile,4 µg/mL
same,MIC90,Clostridioides difficile,8 µg/mL
